Measured values published in US5254574A, “New tetrazole derivatives, process for their preparation and their use” (Chemisch Pharmazeutische Forschungsgesellschaft m.b.H., priority 1991, dated 1993).
“Also recorded” adds a separate entry of the source.

Experiments:
[1] = target: T1, Angiotensin II receptor (isolated rat aorta) (Rattus norvegicus, UniProt P25095); assay: Isolated rat aorta, contractile force; cumulative angiotensin II dose-response curves with and without antagonist pretreatment; conditions: dose/effect curve of angiotensin II; FIG. 1, FIG. 2
T1 construct: isolated rat aorta; from tissue; host or cells: isolated rat aorta
T1 sequence (P25095 1-359): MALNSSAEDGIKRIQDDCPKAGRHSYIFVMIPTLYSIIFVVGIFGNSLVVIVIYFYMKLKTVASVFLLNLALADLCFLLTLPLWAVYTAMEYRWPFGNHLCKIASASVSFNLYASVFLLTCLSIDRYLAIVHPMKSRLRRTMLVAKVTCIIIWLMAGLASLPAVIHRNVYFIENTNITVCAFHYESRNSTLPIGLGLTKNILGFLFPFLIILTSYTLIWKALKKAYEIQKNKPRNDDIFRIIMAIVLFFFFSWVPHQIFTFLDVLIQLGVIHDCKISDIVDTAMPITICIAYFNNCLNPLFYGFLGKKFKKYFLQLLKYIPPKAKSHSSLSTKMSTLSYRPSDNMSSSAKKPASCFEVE
Description: 1 or DuP 753 (10-8, 10^-7, 10^-6 mol/1, each) and results were expressed as percentage of maximum contraction obtained by addition of 10^-5 mol/1 noradrenaline.
EP50 -values and pA2 -values were determined arithmetically.
FIG. 1 Isolated rat aorta contractile force of subst. 1
FIG. 2 Isolated rat aorta contractile force of DuP 753

[2] = cited from earlier work
[3] = tested on: angiotensin II induced increases in mean arterial blood pressure; assay: Anaesthetized normotensive rat: angiotensin II induced increases in mean arterial blood pressure after intraduodenal administration; conditions: FIG. 3
Description: b) anaesthetized normotensive rat: Angiotension II (1 /ug/kg i.v.) was given before as well as in 15 minutes intervals after intraduodenal administration of the drugs.
FIG. 3 The effects of DuP 753 and Subst. 1 on angiotension II induced increases in mean arterial bloodpessure in normotensive anaesthetized rats (n=4)

angiotensin II receptor = conditions: Wong et al., 1990, JPET 255, 211-217; cited from earlier work

SMILES | mode of antagonism in vitro [1] | metabolic conversion in vivo ([2]; literature) | duration of action in vivo ([3]; DuP 753 compared with the substances according to the invention) | conversion into active non-competitive metabolite in vivo ([3]; concluded from duration of action) | mode of angiotensin II receptor antagonism (angiotensin II receptor) | contribution of metabolite to duration of action of DuP 753 ([2]; in vivo, Wong et al., 1990)
CCCCc1nc(Cl)c(CO)n1Cc1ccc(-c2ccccc2-c2nn[nH]n2)cc1 [DuP 753, 2-n-butyl-4-chloro-5-hydroxymethyl-1-((2'-(1-H-tetrazol-5-yl)biphenyl-4-yl)methyl)imidazole] | acts competitively in experiments in vitro | converted into a non-competitive metabolite, EXP 3174 | longer duration of action | conversion into an active non-competitive metabolite is detectable |  | 
CCCCc1nc(Cl)c(C(=O)O)n1Cc1ccc(-c2ccccc2-c2nnn[nH]2)cc1 [EXP 3174, 2-n-butyl-4-chloro-1-((2'-(1H-tetrazol-5-yl)biphenyl-4-yl)methyl)-imidazole-5-carboxylic acid] |  |  |  |  | non-competitive irreversible angiotensin II receptor antagonist | responsible for the long duration of action; also recorded: largely responsible for the duration of action of DuP 753
